The compounds below were run against biotinylated KRAS G12C protein (GMP-PNP loaded) and GST-tagged Ras binding domain of c-RAF (Homo sapiens, UniProt P01116, C118S/C51S/C80L/G12C) (assay: RAS:RAF-RBD binding assay (TR-FRET)). Conditions: 30-minute incubation of compound with KRAS G12C before RAF-RBD; Table 4; read-out: IC50.
Sequence of biotinylated KRAS G12C protein (GMP-PNP loaded) and GST-tagged Ras binding domain of c-RAF (P01116 with tags, fused parts or gaps isoform P01116-2 G12C/C51S/C80L/C118S): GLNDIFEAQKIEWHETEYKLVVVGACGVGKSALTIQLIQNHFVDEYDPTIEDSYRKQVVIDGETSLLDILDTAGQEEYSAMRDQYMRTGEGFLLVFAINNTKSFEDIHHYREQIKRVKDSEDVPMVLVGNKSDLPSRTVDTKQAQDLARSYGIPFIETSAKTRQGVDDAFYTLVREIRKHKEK

| IC50 | SMILES |
| --- | --- |
| 16.1 nM | CO[C@@H]1CCCC[C@@H]1NC/C=C/C(=O)Nc1c(F)cc(C(=O)c2cc3c4c(cccn24)-c2c(C(F)(F)F)cc4c(nc(C)n4C)c2OCC3)cc1F [Example 266, (E)-N-(4-(9,10-dimethyl-7-(trifluoromethyl)-13,14-dihydro-9H-imidazo-[4″,5″:5′,6′]benzo[1′,2′: 2,3]oxocino[4,5,6-hi]-indolizine-2-carbonyl)-2,6-difluorophenyl)-4-(((1S,2R)-2-methoxy-cyclohexyl)amino)but-2-enamide] |
| 37.7 nM | Cc1nc2c3c(c(C(F)(F)F)cc2n1C)-c1cccn2c(C(=O)c4cc(F)c(NC(=O)/C=C/CN5CC6(CCOCC6)C5)c(F)c4)cc(c12)CCO3 [Example 280, (E)-2-(4-((4-(9,10-dimeth-yl-7-(trifluoromethyl)-13,14-dihydro-9H-imidazo[4″,5″:5′,6′]benzo-[1′,2′:2,3]oxocino[4,5,6-hi]indolizine-2-carbonyl)-2,6-difluorophenyl)amino)-4-oxobut-2-en-1-yl)-7-oxa-2-azaspiro[3.5]nonan-2-ium 2,2,2-trifluoroacetate] |
| 5.73 nM | Cc1nc2c3c(c(C(F)(F)F)cc2n1C)-c1cccn2c(C(=O)c4cc(F)c(NC(=O)/C=C/CNCC5(CO)COC5)c(F)c4)cc(c12)CCO3 [Example 279, (E)-4-((4-(9,10-dimethyl-7-(trifluoromethyl)-13,14-dihydro-9H-imidazo-[4″,5″:5′,6′]benzo[1′,2′: 2,3]oxocino[4,5,6-hi]-indolizine-2-carbonyl)-2,6-difluorophenyl)amino)-N-((3-(hydroxymethyl)oxetan-3-yl)methyl)-4-oxobut-2-en-1-aminium 2,2,2-trifluoroacetate] |
| 5.55 nM | COCc1nc2c3c(c(OC)cc2n1C)-c1cccn2c(C(=O)c4cc(F)c(NC(=O)/C=C/CNC5CC6(COC6)C5)c(F)c4)cc(c12)CCN3C [Example 291, (E)-4-((2-oxaspiro[3.3]-heptan-6-yl)amino)-N-(2,6-difluoro-4-(7-meth-oxy-10-(methoxymethyl)-9,12-dimethyl-9,12,13,14-tetrahydroimidazo[4″,5″: 5′,6′]benzo[1′,2′:2,3]-azocino[4,5,6-hi]indol-izine-2-carbonyl)phenyl) but-2-enamide] |

Reference: patent publication US20240262842A1, “SMALL MOLECULE INHIBITORS OF KRAS G12C MUTANT” (Merck Sharp & Dohme LLC, priority 2021, published 2024)
